# Laboratory results: US10098909B2 (UNIVERSITY OF SOUTH FLORIDA, priority 2016, dated 2018)
# B1: BDNF: brain derived neurotrophic factor, a potent modulator of learning and memory, synaptic plasticity and neurogenesis (protein, UniProt P23560 19-247, looked up)
# Neurotrophic factor BDNF …: APMKEANIRGQGGLAYPGVRTHGTLESVNGPKAGSRGLTSLADTFEHVIEELLDEDQKVRPNEENNKDADLYTSRVMLSSQVPLEPPLLFLLEEYKNYLDAANMSMRVRRHSDPARRGELSVCDSISEWVTAADKKTAVDMSGGTVTVLEKVPVSKGQLKQYFYETKCNPMGYTKEGCRGIDKRHWNSQCRTTQSYVRALTMDSKKRIGWRFIRIDTSCVCTLTIKRGR
# Legend:
# [1] = tested on: Wild-type mouse neuroblastoma (N2a) cells; experiment: Neuronal cell differentiation in N2a cells (β-tubulin III, phospho-synapsin I; immunofluorescence and WB); assay type: cell-based; conditions: 10 mM, 24 h
# Method: These cells were then permeabilized with 0.05% Triton X-100 for 5 min, washed, and incubated with mouse anti-β-tubulin III monoclonal antibody ([…]™), and rabbit anti-phospho-synapsin I (Ser^62, Ser^67) polyclonal antibody (EMD Millipore) overnight at 4° C. Alexa Fluor® 488 Goat anti-mouse IgG (green) and Alexa Fluor® 594 Donkey anti-rabbit IgG (red, Life Technologies) were used to detect β-tubulin III and phospho-synapsin I signals respectively. Confocal images were taken by Olympus Fluoview™ FV1000 laser scanning confocal microscope (Tokyo, Japan).
# [2] = tested on: Human neural stem cells (H9-Derived); experiment: Human neural stem cell differentiation (MAP2, GFAP; immunofluorescence and WB); assay type: cell-based; conditions: 10 mM, 14 days
# Method: These cells were then permeabilized, washed, incubated with mouse anti-MAP2 monoclonal antibody or rabbit anti-GFAP polyclonal antibody overnight at 4° C., stained with Alexa Fluor® 488 (green) and Alexa Fluor® 594 (red), and visualized by confocal microscopy. DAPI (blue) was used to detect nuclear DNA.
# [3] = In vivo plasma and brain lithium pharmacokinetics after oral gavage (AAS); parameters: species or system Sprague-Dawley rats; conditions: for time of plasma lithium peak: sampled at 2, 24, 48, 72 h; for plasma and brain lithium level profile after oral dosing: summary of FIG. 2, up to 48 h
# GSK3β [4] = experiment: GSK3β phosphorylation in Fmr1 KO mouse embryonic fibroblasts (WB); assay type: cell-based; conditions: 60 min
# Method: FIGS. 5A-5B. […] Many neurodegenerative disorders, including FXS, have been associated with enhanced GSK activity (14-16). Fmr1 KO mouse embryonic fibroblasts (Fmr1 KO MEF) have elevated levels of stimulatory GSK3β ([…]) phosphorylation compared to wild-type MEF (both cell lines kindly provided by Dr. David Nelson, Baylor College of Medicine). […] Cell lysates were then prepared and subjected to WB analysis using specific phospho-GSK3β (pGSK3β)^Tyr216, pGSK3β^Ser9 and total GSK antibodies.
# GSK3β [5] = experiment: GSK3β Tyr216 phosphorylation in brain homogenates of Fmr1 KO mice (WB); assay type: in vivo, mouse; conditions: 28 mg/kg/day i.p., 5 days
# Method: (§1) (6A) Mouse brain homogenates were then prepared from cerebral cortex and hippocampus and analyzed by WB with specific pGSK3α^Tyr279, pGSK3β^Tyr216 and total GSK antibodies.
# GSK3α = GSK3α Tyr279 phosphorylation in brain homogenates of Fmr1 KO mice (WB); assay type: in vivo, mouse; conditions: 28 mg/kg/day i.p., 5 days
# Method: as §1
# Fmr1 KO mice [6] = conditions: dfmr1 mutant Drosophila and Fmr1 KO mice; cited from earlier work
# Fmr1 KO mice [7] = conditions: cited from earlier work
# [8] = male rats, 4 mEq/kg lithium, oral gavage
molecule,measurement,setting,value
"O=C(O)[C@@H]1CCCN1 [1-proline, L-proline]",neuronal cell differentiation (β-tubulin III and phospho-synapsin I immunofluorescence and WB) vs PBS,[1],no significant difference
same,"GFAP expression (gliogenesis; immunofluorescence and WB, GFAP to β-actin) vs PBS",[2],no significance difference
same,"MAP2 expression (immunofluorescence and WB, MAP2 to β-actin) vs PBS",[2],no significance difference
O=C(O)[C@@H]1CCCN1.O=C([O-])c1ccccc1O.[Li+] [LISPRO],plasma lithium level at 2 h,"[3]; male rats, 4 mEq/kg lithium, oral gavage, 2 h",elevated
same,plasma lithium level at 48 h,[3]; [8],remained elevated
same,plasma lithium level at 72 h,"[3]; male rats, 4 mEq/kg lithium, oral gavage, 72 h",almost undetectable
same,brain lithium levels at 24 and 48 h,"[3]; male rats, 4 mEq/kg lithium, oral gavage, brain, 24 and 48 h",steady brain levels
same,time of plasma lithium peak,[3]; [8],24 h
same,plasma and brain lithium level profile after oral dosing,[3],nearly steady levels of lithium in plasma and brain for up to 48 h without the initial spike
same,stimulatory pGSK3β Tyr216 level,"GSK3β [4]; Fmr1 KO MEF, 40 μM",decreased
same,total GSK3β level,"GSK3β [4]; Fmr1 KO MEF, 10, 20 or 40 μM",unchanged
same,inhibitory pGSK3β Ser9 level,"GSK3β [4]; Fmr1 KO MEF, starting at 10 μM",increased
same,pGSK3β Tyr216 level in cerebral cortex and hippocampus,GSK3β [5],reduced these levels
same,pGSK3α Tyr279 level in cerebral cortex and hippocampus,GSK3α,reduced these levels
"O=C([O-])[O-].[Li+].[Li+] [Li2CO3, lithium carbonate]",plasma lithium level at 48 h,[3]; [8],nearly undetectable
same,brain lithium level at 24 h,"[3]; male rats, 4 mEq/kg lithium, oral gavage, brain, 24 h",concomitant spike
same,time of plasma lithium peak,[3]; [8],24 h
same,plasma and brain lithium level profile after oral dosing,[3],spike in plasma and brain lithium levels at 24 h with considerably lower or undetectable levels at 48 h
same,neuronal cell differentiation (β-tubulin III and phospho-synapsin I immunofluorescence and WB) vs PBS,[1],no significant difference
same,"GFAP expression (gliogenesis; immunofluorescence and WB, GFAP to β-actin) vs PBS",[2],no significance difference
same,"MAP2 expression (immunofluorescence and WB, MAP2 to β-actin) vs PBS",[2],no significance difference
[Cl-].[Li+] [LiCl],neuronal cell differentiation (β-tubulin III and phospho-synapsin I immunofluorescence and WB) vs PBS,[1],no significant difference
same,"GFAP expression (gliogenesis; immunofluorescence and WB, GFAP to β-actin) vs PBS",[2],no significance difference
same,"MAP2 expression (immunofluorescence and WB, MAP2 to β-actin) vs PBS",[2],no significance difference
Cn1cc(C2=C(c3ccc(Cl)cc3Cl)C(=O)NC2=O)c2ccccc21 [SB-216763],"FXS behavioral phenotypes (hyperactivity, social and cognitive impairment)",Fmr1 KO mice [6],reverse these behavioral deficits
Cn1sc(=O)n(Cc2ccccc2)c1=O [TDZD-8],"FXS behavioral phenotypes (hyperactivity, social and cognitive impairment)",Fmr1 KO mice [6],reverse these behavioral deficits
B1,impairment in hippocampal long term potentiation,Fmr1 KO mice [7],fully restored
